Measurements from patent publication US20100168102A9, “Amide Derivatives as Kinase Inhibitors” (Devgen NV, priority 2005, published 2010).
pIC50: −log10 of the molar value. Counter-ions that a name gives are not always drawn. Like-named read-outs stand apart in the source and are kept apart here.

Columns and labels:
PKC theta = target: T1, PKC theta (Homo sapiens, UniProt Q04759); assay: Biochemical assay for PKC theta (fluorescence polarization, Protein Kinase C Assay Kit, Red)
T1 construct: purchased Invitrogen P2996
T1 sequence (Q04759 whole entry): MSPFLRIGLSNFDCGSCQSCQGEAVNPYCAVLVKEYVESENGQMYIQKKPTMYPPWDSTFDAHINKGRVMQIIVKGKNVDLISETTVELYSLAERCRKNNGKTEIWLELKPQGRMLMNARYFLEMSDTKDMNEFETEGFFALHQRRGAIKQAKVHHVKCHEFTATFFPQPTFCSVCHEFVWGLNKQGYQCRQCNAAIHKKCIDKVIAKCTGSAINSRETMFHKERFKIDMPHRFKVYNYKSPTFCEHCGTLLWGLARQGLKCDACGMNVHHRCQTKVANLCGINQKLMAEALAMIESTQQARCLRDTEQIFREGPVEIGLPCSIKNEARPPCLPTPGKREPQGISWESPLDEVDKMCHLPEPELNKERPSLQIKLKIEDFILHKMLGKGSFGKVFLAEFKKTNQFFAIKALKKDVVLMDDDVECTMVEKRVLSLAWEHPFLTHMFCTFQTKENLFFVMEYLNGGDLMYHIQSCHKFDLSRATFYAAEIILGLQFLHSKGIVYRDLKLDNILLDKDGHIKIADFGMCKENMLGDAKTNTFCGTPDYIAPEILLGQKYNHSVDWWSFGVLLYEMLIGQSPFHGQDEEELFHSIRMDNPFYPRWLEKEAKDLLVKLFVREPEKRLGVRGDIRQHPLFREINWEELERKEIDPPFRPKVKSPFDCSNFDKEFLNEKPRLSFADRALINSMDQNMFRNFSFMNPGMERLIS
Protocol: The compounds were tested for inhibition of PKC theta.
The inhibition assays were performed with a fluorescence polarization (FP) assay using the commercially available Protein Kinase C Assay Kit, Red, from Invitrogen (Product ID. No. P2941), essentially in accordance with the protocol supplied by the manufacturer. The substrate used was […] (Mw 1561), also obtained from Invitrogen (Product ID No. P2760). The isozyme PKC theta was also obtained from Invitrogen (Product ID No. P2996).
Staurosporine was used as a positive control (2 μM).
To perform the assay, 2 μl, of a solution of the compound to be tested in DMSO (at each concentration) was added to 6 μl of a solution of the enzyme in 10 mM HEPES, 5 mM dithiotreitol, 0.1% Triton X-100, pH 7.4. The final concentration of the enzymes was 60 ng/ml.
After incubating for 30 minutes at room temperature, 4 μl of a mixture of ATP and the protein substrate in 60 mM HEPES (pH7.4), 15 mM MgCl2, 0.3 mM CaCl2, 0.06% NP40 was added. The final concentration of the ATP was 2.5 μM and final concentration of protein substrate was 1 μM.
After incubating for 80 minutes at room temperature, 3 μl of a mix solution of 500 mM EDTA (stop solution) and the Rhodamine-based PKC Red Tracer (from the Protein Kinase C Assay Kit) in BGG/phosphate buffer (pH7.4) with 0.02% NaN3 and 0.1% Triton X-100 was added and 5 μl of a the Anti-Phosphoserine antibody (also from the Protein Kinase C Assay Kit) in BGG/phosphate buffer (pH7.4) with 0.02% NaN3.
The mixture thus obtained (total volume: 20 μl) was incubated for 60 minutes at room temperature, upon which the fluorescence polarization was measured using an automated plate reader (Perkin Elmer, Model Envision 2100-0010 HTS) with FP filters for rhodamine: excitation fitter FITC FP 531 and emission filters FITC FP P-pol 595 and FITC FP S-pol 595 (Perkin-Elmer). The results were fitted to a curve using the XL-Fit algorithm and IC50 values were calculated for each fitted curve, again using the XL-Fit algorithm.

PKCε = assay: Reporter assay (PathDetect trans reporter, Elk/SEAP) in reporter cell-lines over-expressing PKCε; assay type: cell-based
Text: Whereas the reporter assay is focused on PKCε specific inhibition in a recombinant system, the monocytes assay is a biomarker assay that can be performed in isolated monocytes, full blood and in vivo to follow the pharmacological reduction of cytokine production:
The reporter assay exploits the effect of over-expressed PKCε on kinase activation and phosphorylation of a transcription factor to evaluate the potency and selectivity of PKCε inhibitors in a cellular context.
It has been shown by jae-Won Soh et al (MCB, February 1999 p 1313-1324) that over-expression of PKC epsilon results in the activation of MAPK-pathway (c-raf/MEK/ERK) leading to the activation of Elk transcription factor. This event can be monitored using the PathDetect trans reporter assay system (Stratagene): pFA2-ELK codes for a fusion protein between the Gal4 DNA binding domain and the transactivation domain of Elk which drives the expression of a secreted alkaline phosphatase (SEAP) reporter gene.
Compounds are incubated with reporter cell-lines either over-expressing PKCε, leading to continued activation of the kinase, or mock transfected cells. Inhibition of the PKCε induced signal in the absence of an effect on the basal level (mock transfected cells) is indicative for selective PKCε inhibition.

PKC epsilon = target: T2, PKC epsilon (Homo sapiens, UniProt Q02156); assay: Biochemical assay for PKC epsilon (fluorescence polarization, Protein Kinase C Assay Kit, Red); settings: read-out: IC50 μM PKCε
T2 construct: purchased Invitrogen P2282
T2 sequence (Q02156 1-737): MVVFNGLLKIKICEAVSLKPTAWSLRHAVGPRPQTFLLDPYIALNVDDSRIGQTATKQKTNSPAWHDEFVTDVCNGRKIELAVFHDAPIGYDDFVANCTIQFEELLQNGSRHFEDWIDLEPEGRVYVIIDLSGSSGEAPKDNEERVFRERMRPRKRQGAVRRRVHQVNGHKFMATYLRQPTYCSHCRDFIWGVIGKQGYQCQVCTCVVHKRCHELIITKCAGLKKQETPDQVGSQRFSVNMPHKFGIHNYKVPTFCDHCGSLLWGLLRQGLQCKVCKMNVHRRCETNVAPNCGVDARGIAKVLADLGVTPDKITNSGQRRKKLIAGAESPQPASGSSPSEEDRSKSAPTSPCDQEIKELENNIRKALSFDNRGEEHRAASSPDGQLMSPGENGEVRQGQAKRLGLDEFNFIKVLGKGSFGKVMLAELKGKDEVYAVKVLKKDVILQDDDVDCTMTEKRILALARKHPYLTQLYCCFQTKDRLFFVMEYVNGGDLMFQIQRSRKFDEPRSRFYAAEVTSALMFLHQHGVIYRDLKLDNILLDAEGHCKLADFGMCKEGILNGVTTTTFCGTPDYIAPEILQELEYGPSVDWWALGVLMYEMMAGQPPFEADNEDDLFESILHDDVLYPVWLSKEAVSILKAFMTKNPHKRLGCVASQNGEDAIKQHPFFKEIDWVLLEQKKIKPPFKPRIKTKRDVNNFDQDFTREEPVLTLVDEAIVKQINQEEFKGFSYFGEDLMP
Procedure, shortened: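 Read-out was fluorescence-polarization competition between phosphorylated substrate and a rhodamine PKC tracer for an anti-phosphoserine antibody, added with EDTA stop after an 80 min room-temperature kinase reaction with ATP and protein substrate (Mg2+/Ca2+ buffer). Enzyme (10 ng/ml final) was preincubated with compound for 30 min.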

human ROCKα/ROCKII mix = target: T3, human ROCKα/ROCKII mix (Homo sapiens, UniProt O75116); assay: Biochemical assay for ROCK (fluorescence polarization, ROCK IMAP Kit)
T3 construct: purchased Upstate Biotechnology 14-451
T3 sequence (O75116 11-552 limits assumed): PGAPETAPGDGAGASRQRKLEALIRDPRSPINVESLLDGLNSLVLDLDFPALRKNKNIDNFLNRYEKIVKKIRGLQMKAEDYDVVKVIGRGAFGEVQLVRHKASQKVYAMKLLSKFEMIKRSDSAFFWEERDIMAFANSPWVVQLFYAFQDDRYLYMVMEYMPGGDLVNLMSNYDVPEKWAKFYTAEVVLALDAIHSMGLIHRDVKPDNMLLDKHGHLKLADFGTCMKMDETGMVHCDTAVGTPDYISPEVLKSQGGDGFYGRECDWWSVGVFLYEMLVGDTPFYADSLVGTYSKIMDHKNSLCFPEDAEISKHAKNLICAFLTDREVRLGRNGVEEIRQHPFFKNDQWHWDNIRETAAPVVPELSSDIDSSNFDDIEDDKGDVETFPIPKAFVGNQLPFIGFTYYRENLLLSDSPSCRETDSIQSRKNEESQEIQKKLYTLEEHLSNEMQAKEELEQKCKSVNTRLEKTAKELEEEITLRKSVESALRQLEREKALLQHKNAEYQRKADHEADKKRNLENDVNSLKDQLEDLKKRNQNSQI

[1] = Table 2, compounds of Formula XIII

| pIC50 (PKC theta) | pIC50 (PKCε) | IC50 (PKC epsilon; [1]) [µM] | IC50 (human ROCKα/ROCKII mix; [1]) [µM] | IC50 (human ROCKα/ROCKII mix) [µM] | IC50 (PKC epsilon) [µM] | SMILES |
| --- | --- | --- | --- | --- | --- | --- |
| 6.30 to 7.30 | > 5.30 | < 0.05 | – | – | – | CC(C)(C(=O)NCC(N)c1ccc(C(=O)Nc2ccncc2)cc1)c1ccc(Cl)cc1 (stereo not shown) [Compound 335, 4-{1-Amino-2-[2-(4-chloro-phenyl)-2-methyl-propionylamino]-ethyl}-N-pyridin-4-yl-benzamide] |
| > 7.30 | > 5.30 | < 0.05 | 0.05 to 0.5 | – | – | CC(C)(C(=O)NCC(N)c1ccc(C(=O)Nc2ccncc2)cc1)c1ccc(F)cc1 (stereo not shown) [Compound 339, 4-{1-Amino-2-[2-(4-fluoro-phenyl)-2-methyl-propionylamino]-ethyl}-N-pyridin-4-yl-benzamide] |
| > 7.30 | > 5.30 | – | – | – | – | NC(CNC(=O)C1(c2ccc(Cl)cc2)CC1)c1ccc(C(=O)Nc2ccnc3[nH]ccc23)cc1 (stereo not shown) [Compound 371, 4-(1-Amino-2-{[1-(4-chloro-phenyl)-cyclopropanecarbonyl]-amino}-ethyl)-N-(1H-pyrrolo[2,3-b]pyridin-4-yl)-benzamide dihydrochloric acid salt] |
| > 7.30 | > 5.30 | – | – | 0.05 to 0.5 | < 0.05 | CC(C)(C(=O)NC[C@@H](N)c1ccc(C(=O)Nc2ccncc2)cc1)c1ccc(Cl)cc1 [Compound 399, 4-{(S)-1-Amino-2-[2-(4-chloro-phenyl)-2-methyl-propionylamino]-ethyl}-N-pyridin-4-yl-benzamide dihydrochloric acid salt] |
